Each structure is given as a SMILES string. pIC50: −log10 of the molar value. Bounds are passed on as bounds.

For this experiment, the target named is T1, 3-phosphoinositide-dependent protein kinase 1 (Homo sapiens, UniProt O15530).
T1 sequence (O15530 whole entry): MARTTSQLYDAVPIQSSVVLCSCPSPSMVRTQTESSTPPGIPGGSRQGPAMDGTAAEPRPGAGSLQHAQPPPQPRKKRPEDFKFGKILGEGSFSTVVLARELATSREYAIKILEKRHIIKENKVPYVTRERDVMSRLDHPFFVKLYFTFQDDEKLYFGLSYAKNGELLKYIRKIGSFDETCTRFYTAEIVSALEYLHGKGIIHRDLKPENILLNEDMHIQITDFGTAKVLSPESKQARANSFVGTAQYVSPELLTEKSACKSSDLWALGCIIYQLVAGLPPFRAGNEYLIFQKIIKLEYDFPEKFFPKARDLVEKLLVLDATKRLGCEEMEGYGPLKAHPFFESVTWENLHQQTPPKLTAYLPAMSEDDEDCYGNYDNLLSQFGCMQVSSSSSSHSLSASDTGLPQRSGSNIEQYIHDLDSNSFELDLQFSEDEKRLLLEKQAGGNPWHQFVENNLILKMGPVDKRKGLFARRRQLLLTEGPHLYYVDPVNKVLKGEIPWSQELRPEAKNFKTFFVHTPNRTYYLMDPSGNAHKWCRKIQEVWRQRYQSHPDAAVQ
Kind of experiment: PDK1 kinase assay: PDK1 (amino acids 51-359) and AKT2 (amino acids 140-467 fused to PIFtide, amino acids […]) were expressed as N-terminally tagged GST fusion proteins in insect cells and purified to homogeneity. Enzyme activity was determined in a coupled PDK1/AKT/FAM-crosstide assay and phosphorylation of FAM-crosstide was determined by standard IMAP protocol (Molecular Devices). For inhibition studies, compounds were titrated 4-fold in DMSO and diluted 40-fold into assay buffer (10 mM Tris HCl pH7.2; 10 mM MgCl2; 0.01% Triton X-100; 1 mM DTT) containing PDK1, AKT2, and FAM-crosstide (final concentrations: 0.75 nM PDK1, 10 nM unphosphorylated AKT2, and 100 nM crosstide substrate). The kinase reaction was initiated by adding ATP to a final concentration of 40 μM of PDK1 and incubated at 25° C. for 30 min. To detect assay product, the kinase reaction was combined with Progressive Binding Solution (1:600 Progressive Binding Reagent, 50% Buffer A, 50% Buffer B, Molecular Devices) in a 1:3 ratio. The mixture was incubated for 2 hours at 25° C. and the plate was scanned on an Analyst AD with excitation at 485 nm and emission at 530 nm. The fluorescence polarization value P is defined by the equation below. The value mP is generated by multiplying the P value for each reaction well by a factor of 1000. The value ΔmP for each well is the mP value for that well minus the mP value for the average negative control. P=(Fpar−Fperp)/(Fpar+Fperp) Eq.:Where par is fluorescence intensity parallel to the excitation plane; and perp is fluorescence intensity perpendicular to the excitation plane. ΔmP values were plotted as a function of compound concentration and the data were analyzed with a 4-parameter fit using GraphPad Prism software. The experiment is classed as biochemical.
As for `C[C@H](NC(=O)c1cc(C#N)cnc1NCc1ccc(-c2cnc3[nH]c(=O)[nH]c3c2)c(F)c1)c1ccc(F)cc1`, the pIC50 was over 7.00.

On to `C[C@H](NC(=O)c1cc(C#N)cnc1NCc1ccc(-c2cnc3[nH]c(=O)n(C)c3c2)cc1)c1ccc(F)cc1`, for which the pIC50 is over 7.00.

With `C[C@H](NC(=O)c1nc(C(F)(F)F)cnc1NCc1ccc(-c2cnc3[nH]nc(N)c3c2)cc1)c1ccc(F)c(F)c1`, the pIC50 is over 7.00.

As to `N#Cc1cnc(NCc2ccc(-c3cnc4[nH]ncc4c3)cc2)c(C(=O)NCc2ccc(F)c(F)c2)c1`, the pIC50 is over 7.00.

With `C[C@H](NC(=O)c1cc(C#N)cnc1NCC#Cc1ccc2nc(N)ncc2c1)c1ccc(F)cc1`, the negative logarithm of the IC50 (pIC50) was over 7.00.

In the case of `C[C@H](NC(=O)c1nc(C(F)(F)F)cnc1N[C@H](C)c1ccc(-c2cnc3[nH]nc(N)c3c2)cc1)c1ccc(F)c(F)c1`, the negative-log IC50 (pIC50) was over 7.00.

On to `COCCNC(=O)c1cccnc1NCc1ccc(-c2ccc3ncnc(N)c3c2)s1`, for which the pIC50 is under 5.30.

Regarding `C[C@H](NC(=O)c1cc(C#N)cnc1NCc1ccc(-c2cnc3[nH]nc(N)c3c2)cc1Cl)c1ccc(F)cc1`, the negative-log IC50 (pIC50) is over 7.00.

Turning to `N#Cc1cc(F)ccc1NC(=O)c1cc(C(F)(F)F)cnc1NCc1ccc(-c2cnc3[nH]nc(N)c3c2)cc1`, the pIC50 is over 7.00.

Turning to `C[C@H](NC(=O)c1cc(C#N)cnc1NCc1ccc(-c2cnc3[nH]nc(N)c3c2)cc1F)c1ccc(F)cc1`, the pIC50 was over 7.00.

Take `C[C@H](NC(=O)c1cccnc1NCc1ccc(-c2cc3c(cn2)ncn3C)s1)c1ccc(F)cc1`: the negative-log IC50 (pIC50) is under 5.30.

As to `Nc1ncc(-c2ccc(CNc3ncc(C(F)(F)F)cc3C(=O)Nc3ccc(F)cc3)cc2)nc1CO`, the negative-log IC50 (pIC50) was over 7.00.

In the case of `Nc1ncnc2ccc(-c3ccc(CNc4ncccc4C(=O)NCc4cncc(F)c4)s3)cc12`, the negative-log IC50 (pIC50) is over 7.00.

Regarding `C[C@H](NC(=O)c1nc(C#N)cnc1N[C@H](C)c1ccc(-c2cnc3[nH]nc(N)c3c2)nc1)c1ccc(F)c(F)c1`, the negative logarithm of the IC50 (pIC50) was over 7.00.

Consider `C[C@H](NC(=O)c1nc(C#N)cnc1NCC#Cc1ccc2nc(N)ncc2c1)c1ccc(F)c(F)c1`, for which the negative-log IC50 (pIC50) was over 7.00.

Take `C[C@H](NC(=O)c1cc(C#N)cnc1N[C@H](C)c1ccc(-c2cnc3[nH]nc(N)c3c2)nc1)c1ccc(F)cc1`: the pIC50 was over 7.00.

For the compound `C[C@H](NC(=O)c1cccnc1NCc1ccc(-c2ccc3ncnc(NCCO)c3c2)s1)c1ccc(F)cc1`, the pIC50 is over 7.00.

As to `Nc1ncnc2ccc(-c3ccc(CNc4ncc(Br)cc4S(=O)(=O)NCc4ccc(F)c(F)c4)s3)cc12`, the pIC50 was under 5.30.

Regarding `C[C@H](NC(=O)c1nc(C#N)cnc1NCc1ccc(-c2cnc(N)c(CO)n2)cc1)c1ccc(F)c(F)c1`, the pIC50 was over 7.00.

Consider `CCc1cnc(NCc2ccc(-c3ccc4ncnc(N)c4c3)s2)c(C(=O)NCc2ccc(F)c(F)c2)c1`, for which the negative-log IC50 (pIC50) was over 7.00.

Take `Cc1nc(N)cnc1-c1ccc(CNc2ncc(C#N)cc2C(=O)N[C@@H](C)c2ccc(F)cc2)cc1`: the negative logarithm of the IC50 (pIC50) is under 5.30.

As for `Cc1ccc(NC(=O)c2cccnc2NCc2ccc(-c3ccc4ncnc(N)c4c3)s2)cc1F`, the pIC50 is under 5.30.
